The source of these data is patent US20240376099A1, “COMPOUNDS AND COMPOSITIONS AS INHIBITORS OF ENDOSOMAL TOLL-LIKE RECEPTORS” (Novartis AG, priority 2016, published 2024).

The test deals with T1, TLR9 (Homo sapiens, UniProt Q9NR96).
T1 construct: Fresh blood was collected from normal human donors; endogenous in cells; host or cells: human PBMCs from fresh donor blood
T1 sequence (Q9NR96 26-1032): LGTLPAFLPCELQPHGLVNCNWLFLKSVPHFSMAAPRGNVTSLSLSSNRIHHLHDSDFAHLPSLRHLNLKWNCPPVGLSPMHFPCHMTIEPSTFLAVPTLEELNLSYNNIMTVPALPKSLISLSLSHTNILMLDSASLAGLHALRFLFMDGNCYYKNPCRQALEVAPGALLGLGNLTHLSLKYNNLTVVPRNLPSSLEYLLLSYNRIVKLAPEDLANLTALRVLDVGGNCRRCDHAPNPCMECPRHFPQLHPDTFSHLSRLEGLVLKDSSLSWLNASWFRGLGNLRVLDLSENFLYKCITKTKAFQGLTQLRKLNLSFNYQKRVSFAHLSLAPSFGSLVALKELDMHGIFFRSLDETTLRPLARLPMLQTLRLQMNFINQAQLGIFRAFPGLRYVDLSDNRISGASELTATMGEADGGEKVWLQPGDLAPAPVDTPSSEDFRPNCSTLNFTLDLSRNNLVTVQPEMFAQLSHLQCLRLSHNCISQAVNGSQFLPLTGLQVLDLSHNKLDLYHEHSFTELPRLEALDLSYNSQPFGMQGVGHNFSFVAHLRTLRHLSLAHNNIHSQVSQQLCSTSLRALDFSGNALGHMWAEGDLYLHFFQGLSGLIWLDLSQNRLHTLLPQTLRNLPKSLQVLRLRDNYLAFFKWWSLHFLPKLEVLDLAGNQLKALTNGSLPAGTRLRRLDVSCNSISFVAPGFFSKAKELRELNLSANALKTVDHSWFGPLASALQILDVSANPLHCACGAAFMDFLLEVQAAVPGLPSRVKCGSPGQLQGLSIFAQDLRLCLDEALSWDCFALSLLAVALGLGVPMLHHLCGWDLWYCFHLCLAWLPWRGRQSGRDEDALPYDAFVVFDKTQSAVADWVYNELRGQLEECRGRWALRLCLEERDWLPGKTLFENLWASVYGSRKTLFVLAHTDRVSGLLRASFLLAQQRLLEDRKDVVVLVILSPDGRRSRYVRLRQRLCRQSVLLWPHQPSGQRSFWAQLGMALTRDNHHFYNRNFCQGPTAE
The test can be described thus: huPBMC TLR9 Antagonist IFNα Assay. Format: cell-based. The conditions noted are these: human PBMCs stimulated with ODN2216 0.3 μM, 14-16 hrs; IFNα2b AlphaLISA read-out. The gist of the method: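 Human PBMCs from fresh donor blood (150,000 cells/well) stimulated 14–16 h at 37 °C with DOTAP-complexed ssRNA40 (final 1 μg/ml for TLR8, 10 μg/mL for TLR7) or ODN2216 (final 0.3 μM, TLR9), 0.25% DMSO, ten-point 1/3 compound dilutions. Supernatant IL-6 read by HTRF (TLR8); IFNα by IFNα2b AlphaLISA (TLR7/TLR9).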
Regarding `Cc1cc(N2CCc3c(c(C)nn3CC34CCC(N)(CC3)CC4)C2)c2cnn(C)c2n1` [Compound No. 1, 4-((5-(1,6-dimethyl-1H-pyrazolo[3,4-b]pyridin-4-yl)-3-methyl-4,5,6,7-tetrahydro-1H-pyrazolo[4,3-c]pyridin-1-yl)methyl)bicyclo[2.2.2]octan-1-amine], the concentration for half-maximal inhibition (IC50) came out at 1520 nM. Under `Cc1cc(N2CCc3c(c(C)nn3CC34CCC(N)(CC3)CC4)C2)c2cn[nH]c2n1` [Compound No. 2, 4-((3-methyl-5-(6-methyl-1H-pyrazolo[3,4-b]pyridin-4-yl)-4,5,6,7-tetrahydro-1H-pyrazolo[4,3-c]pyridin-1-yl)methyl)bicyclo[2.2.2]octan-1-amine] stands 3130 nM. As to `Cc1cc(N2CCc3c(c(C)nn3CC34CCC(N(C)C(=O)OC(C)(C)C)(CC3)CC4)C2)c2cnn(C)c2n1` [Compound No. 49, tert-butyl (4-((5-(1,6-dimethyl-1H-pyrazolo[3,4-b]pyridin-4-yl)-3-methyl-4,5,6,7-tetrahydro-1H-pyrazolo[4,3-c]pyridin-1-yl)methyl)bicyclo[2.2.2]octan-1-yl)(methyl)carbamate], the IC50 was 3950 nM. To `CNC12CCC(Cn3nc(C)c4c3CCN(c3cc(C)nc5c3cnn5C)C4)(CC1)CC2` [Compound No. 50, 4-((5-(1,6-dimethyl-1H-pyrazolo[3,4-b]pyridin-4-yl)-3-methyl-4,5,6,7-tetrahydro-1H-pyrazolo[4,3-c]pyridin-1-yl)methyl)-N-methylbicyclo[2.2.2]octan-1-amine] belongs 376 nM; to `Cc1cc(N2CCc3c(c(C)nn3CC34CCC(NC(=O)OC5(C)CC5)(CC3)CC4)C2)c2cnn(C)c2n1` [Compound No. 51, 1-methylcyclopropyl (4-((5-(1,6-dimethyl-1H-pyrazolo[3,4-b]pyridin-4-yl)-3-methyl-4,5,6,7-tetrahydro-1H-pyrazolo[4,3-c]pyridin-1-yl)methyl)bicyclo[2.2.2]octan-1-yl)carbamate], 7550 nM; to `COc1ccc(Cn2ncc3c(N4CCc5c(c(C)nn5CC56CCC(N)(CC5)CC6)C4)cc(C)nc32)cc1` [Compound No. 53, 4-((5-(1-(4-methoxybenzyl)-6-methyl-1H-pyrazolo[3,4-b]pyridin-4-yl)-3-methyl-4,5,6,7-tetrahydro-1H-pyrazolo[4,3-c]pyridin-1-yl)methyl)bicyclo[2.2.2]octan-1-amine], 1730 nM. As for `Cc1cc(N2CCc3c(c(C)nn3CC34CCC(N5CCCC5)(CC3)CC4)C2)c2cnn(C)c2n1` [Compound No. 58, 5-(1,6-dimethyl-1H-pyrazolo[3,4-b]pyridin-4-yl)-3-methyl-1-((4-(pyrrolidin-1-yl)bicyclo[2.2.2]octan-1-yl)methyl)-4,5,6,7-tetrahydro-1H-pyrazolo[4,3-c]pyridine], the IC50 turned out to be 639 nM.

Take `Cc1cc(N2CCc3c(c(C)nn3CC34CCC(N5CCOCC5)(CC3)CC4)C2)c2cnn(C)c2n1` [Compound No. 59, 4-(4-((5-(1,6-dimethyl-1H-pyrazolo[3,4-b]pyridin-4-yl)-3-methyl-4,5,6,7-tetrahydro-1H-pyrazolo[4,3-c]pyridin-1-yl)methyl)bicyclo[2.2.2]octan-1-yl)morpholine]: the IC50 stood at 2170 nM.

Consider `COCCNC12CCC(Cn3nc(C)c4c3CCN(c3cc(C)nc5c3cnn5C)C4)(CC1)CC2` [Compound No. 69, 4-((5-(1,6-dimethyl-1H-pyrazolo[3,4-b]pyridin-4-yl)-3-methyl-4,5,6,7-tetrahydro-1H-pyrazolo[4,3-c]pyridin-1-yl)methyl)-N-(2-methoxyethyl)bicyclo[2.2.2]octan-1-amine], for which the IC50 was determined as 442 nM. Under `Cc1cc(N2CCc3c(c(C)nn3CC34CCC(N(C)C5COC5)(CC3)CC4)C2)c2cnn(C)c2n1` [Compound No. 77, N-(4-((5-(1,6-dimethyl-1H-pyrazolo[3,4-b]pyridin-4-yl)-3-methyl-4,5,6,7-tetrahydro-1H-pyrazolo[4,3-c]pyridin-1-yl)methyl)bicyclo[2.2.2]octan-1-yl)-N-methyloxetan-3-amine] stands 179 nM; under `Cc1nn(CC23CCC(N)(CC2)CC3)c2c1CN(c1ccnc(-c3ccc(C#N)cc3)c1)CC2` [Compound No. 84, 4-(4-(1-((4-aminobicyclo[2.2.2]octan-1-yl)methyl)-3-methyl-6,7-dihydro-1H-pyrazolo[4,3-c]pyridin-5(4H)-yl)pyridin-2-yl)benzonitrile], 1840 nM. Consider `Cc1cc(N2CCc3c(c(C)nn3CC34CCC(O)(CC3)CC4)C2)c2cnn(C)c2n1` [compound 46, 4-((5-(1,6-dimethyl-1H-pyrazolo[3,4-b]pyridin-4-yl)-3-methyl-4,5,6,7-tetrahydro-1H-pyrazolo[4,3-c]pyridin-1-yl)methyl)bicyclo[2.2.2]octan-1-ol], for which the IC50 is > 10000 nM. To `Cc1cc(N2CCc3nn(CC45CC(N)(C4)C5)c(C)c3C2)c2cnn(C)c2n1` [compound 52, 3-((5-(1,6-dimethyl-1H-pyrazolo[3,4-b]pyridin-4-yl)-3-methyl-4,5,6,7-tetrahydro-2H-pyrazolo[4,3-c]pyridin-2-yl)methyl)bicyclo[1.1.1]pentan-1-amine] belongs 4860 nM. For the molecule `Cc1cc(N2CCc3c(c(C)nn3CC34CCC(NC5CCC5)(CC3)CC4)C2)c2cnn(C)c2n1` [compound 54, N-cyclobutyl-4-((5-(1,6-dimethyl-1H-pyrazolo[3,4-b]pyridin-4-yl)-3-methyl-4,5,6,7-tetrahydro-1H-pyrazolo[4,3-c]pyridin-1-yl)methyl)bicyclo[2.2.2]octan-1-amine], the IC50 stood at 489 nM. To `Cc1cc(N2CCc3c(c(C)nn3CC34CCC(NC(C)C)(CC3)CC4)C2)c2cnn(C)c2n1` [compound 55, 4-((5-(1,6-dimethyl-1H-pyrazolo[3,4-b]pyridin-4-yl)-3-methyl-4,5,6,7-tetrahydro-1H-pyrazolo[4,3-c]pyridin-1-yl)methyl)-N-isopropylbicyclo[2.2.]octan-1-amine] belongs 1050 nM; to `Cc1cc(N2CCc3c(c(C)nn3CC34CCC(NC(C)CO)(CC3)CC4)C2)c2cnn(C)c2n1` (stereo not drawn) [compound 56, 2-((4-((5-(1,6-dimethyl-1H-pyrazolo[3,4-b]pyridin-4-yl)-3-methyl-4,5,6,7-tetrahydro-1H-pyrazolo[4,3-c]pyridin-1-yl)methyl)bicyclo[2.2.2]octan-1-yl)amino)propan-1-ol], 680 nM.

For the molecule `CCNC12CCC(Cn3nc(C)c4c3CCN(c3cc(C)nc5c3cnn5C)C4)(CC1)CC2` [compound 57, 4-((5-(1,6-dimethyl-1H-pyrazolo[3,4-b]pyridin-4-yl)-3-methyl-4,5,6,7-tetrahydro-1H-pyrazolo[4,3-c]pyridin-1-yl)methyl)-N-ethylbicyclo[2.2.]octan-1-amine], the IC50 is 497 nM. To `Cc1cc(N2CCc3c(c(C)nn3CC34CCC(N5CCC5)(CC3)CC4)C2)c2cnn(C)c2n1` [compound 64, 1-((4-(azetidin-1-yl)bicyclo[2.2.2]octan-1-yl)methyl)-5-(1,6-dimethyl-1H-pyrazolo[3,4-b]pyridin-4-yl)-3-methyl-4,5,6,7-tetrahydro-1H-pyrazolo[4,3-c]pyridine] belongs 443 nM; to `CCOCCNC12CCC(Cn3nc(C)c4c3CCN(c3cc(C)nc5c3cnn5C)C4)(CC1)CC2` [compound 71, 4-((5-(1,6-dimethyl-1H-pyrazolo[3,4-b]pyridin-4-yl)-3-methyl-4,5,6,7-tetrahydro-1H-pyrazolo[4,3-c]pyridin-1-yl)methyl)-N-(2-ethoxyethyl)bicyclo[2.2.2]octan-1-amine], 488 nM. Under `CCOCCN(CCOCC)C12CCC(Cn3nc(C)c4c3CCN(c3cc(C)nc5c3cnn5C)C4)(CC1)CC2` [compound 72, 4-((5-(1,6-dimethyl-1H-pyrazolo[3,4-b]pyridin-4-yl)-3-methyl-4,5,6,7-tetrahydro-1H-pyrazolo[4,3-c]pyridin-1-yl)methyl)-N,N-bis(2-ethoxyethyl)bicyclo[2.2.2]octan-1-amine] stands 815 nM. As for `Cc1cc(N2CCc3c(c(C)nn3CC34CCC(N5C[C@@H](O)[C@@H](O)C5)(CC3)CC4)C2)c2cnn(C)c2n1` [compound 74, (3S,4R)-1-(4-((5-(1,6-dimethyl-1H-pyrazolo[3,4-b]pyridin-4-yl)-3-methyl-4,5,6,7-tetrahydro-1H-pyrazolo[4,3-c]pyridin-1-yl)methyl)bicyclo[2.2.2]octan-1-yl)pyrrolidine-3,4-diol], the IC50 was 1540 nM.
